In series [1] the target is Gamma-secretase. Put plainly: (§1) Modulation of gamma-secretase in human H4 cells expressing human wild type APP751 assessed as reduction in amyloid beta42 level incubated overnight by ELISA. It is filed as cell-based. On the technique in general: In an ELISA, binding on a coated surface is turned into a signal by an enzyme label.
Series [2] is described as follows: Unbound clearance in human hepatocytes. Format: ADME, cell-based, Hepatocyte.
Series [3] has as its system Mus musculus. As to the kind of experiment: In vivo modulation of gamma secretase in mouse assessed as reduction in Abeta42 levels in brain at 30 mg/kg, po measured after 6 hrs relative to control. It is filed as functional. Details: scale not given: the % may be the effect or the level left.
Series [4] can be described thus: Ratio of free drug concentration in mouse brain to EC90 for modulation of gamma secretase in human H4 cells expressing human wild type APP751 assessed as reduction in amyloid beta42 level incubated overnight by ELISA. It is filed as ADME, cell-based.
Series [5] addresses Gamma-secretase (Homo sapiens) (UniProt Q96BI3+Q9NZ42+Q8WW43+P49768+Q92542+P49810). Described as §1. Format: cell-based. The conditions noted are these: filed as modulator.
For series [6], the system named is Rattus norvegicus. As to the kind of experiment: In vivo modulation of gamma secretase in rat assessed as reduction in Abeta42 levels in CSF at 30 mg/kg, po measured after 6 hrs by ELISA relative to control. Format: functional, Cerebrospinal fluid. On the set-up: scale not given: the % may be the effect or the level left.
For series [7], the system named is Rattus norvegicus. As to the kind of experiment: In vivo modulation of gamma secretase in rat assessed as reduction in Abeta42 levels in brain at 30 mg/kg, po measured after 6 hrs by ELISA relative to control. On the set-up: scale not given: the % may be the effect or the level left. Format: functional.
Series [8] in a line: Ratio of free drug concentration in rat brain to EC90 for modulation of gamma secretase in human H4 cells expressing human wild type APP751 assessed as reduction in amyloid beta42 level incubated overnight by ELISA. Format: ADME, cell-based.

In general, EC50 refers to the concentration giving half of the maximal effect. Usually EC90 stands for the concentration needed for an effect of 90%.

Each structure is given as a SMILES string.

Consider `COc1nc(C2=NOCC(c3ccccc3)N2)ccc1-n1cnc(C)c1` (stereo in doubt; 7a), for which the EC50 in series [1] worked out at 97 nM. This compound came in with a CL free in series [2] of 21 mL/min/kg.
In the same order, the values of `COc1nc(C2=NOCC(c3ccc(C4CC4)c(Cl)c3)N2)ccc1-n1cnc(C)c1` (stereo not given) are 13 nM and 1147 mL/min/kg.
Consider `COc1nc(C2=NOCC(c3ccc(C(F)(F)F)cc3)N2)ccc1-n1cnc(C)c1` (stereo not given), for which the Activity in series [3] was 36%. In addition, the Ratio in series [4] is 1.1. Moreover, in series [5], the EC90 is 407 nM. In series [1], the EC50 is 34 nM. In addition, the CL free in series [2] is 12 mL/min/kg.
`COc1nc(C2=NOCC(c3ccc(Cl)c(F)c3)N2)ccc1-n1cnc(C)c1` (stereo not given): the Activity in series [3] was 28%. Moreover, the Ratio in series [4] was determined as 1.7. For the same compound, the EC90 in series [5] turned out to be 246 nM. Moreover, the EC50 in series [1] turned out to be 23 nM. Also, in series [2], the CL free was 32 mL/min/kg.
Consider `COc1nc(C2=NOCC(c3ccc(C4CC4)cc3)N2)ccc1-n1cnc(C)c1` (stereo not given), for which the concentration giving a half-maximal response (EC50) in series [1] turned out to be 39 nM. The compound further came in with a CL free in series [2] of 208 mL/min/kg.
As for `COc1nc(C2=NOCC(c3ccc(Cl)cc3)N2)ccc1-n1cnc(C)c1` (stereo not given), the Activity in series [3] is 26%. Further, the Ratio in series [4] was 0.6. Moreover, the EC90 in series [5] was found to be 389 nM. For the same compound, the EC50 in series [1] was determined as 37 nM. The CL free in series [2] was 2 mL/min/kg.
Consider `COc1nc(C2=NOCC(c3ccc(Cl)c(C(F)(F)F)c3)N2)ccc1-n1cnc(C)c1` (stereo not given), for which the EC50 in series [1] amounted to 8 nM. For the same compound, in series [2], the CL free was 6 mL/min/kg.
As to `COc1nc(C2=NOC(C)C(c3ccc(Cl)cc3)N2)ccc1-n1cnc(C)c1` (stereo not given), the Activity was found to be 47% in series [3], 84% in series [6] and 41% in series [7]. The Ratio in series [4] is 4.5; in series [8] it was 0.3. Also, the EC90 in series [5] is 187 nM. In addition, the EC50 in series [1] turned out to be 16 nM. The compound further came in with a CL free in series [2] of 12 mL/min/kg.
In the case of `COc1nc(C2=NOCC(c3cccc(C#N)c3)N2)ccc1-n1cnc(C)c1` (stereo not given), in series [1], the EC50 stood at 214 nM.
With `COc1nc(C2=NOC(C)C(c3cccc(Cl)c3)N2)ccc1-n1cnc(C)c1` (stereo not given), the EC50 in series [1] is 14 nM. This compound yielded a CL free in series [2] of 19 mL/min/kg.
In the case of `COc1ccc(C2CON=C(c3ccc(-n4cnc(C)c4)c(OC)n3)N2)cc1` (stereo not given), the EC50 in series [1] is 97 nM.
Consider `COc1nc(C2=NOCC(c3cccc(Cl)c3)N2)ccc1-n1cnc(C)c1` (stereo not given), for which, in series [1], the EC50 was found to be 26 nM. The CL free in series [2] came out at 15 mL/min/kg.
In the case of `COc1nc(C2=NOCC(c3cc(Cl)cc(Cl)c3)N2)ccc1-n1cnc(C)c1` (stereo not given), the Activity in series [3] worked out at 23%. Besides, the Ratio in series [4] is 0.8. In addition, the EC90 in series [5] was 104 nM. Also, in series [1], the EC50 worked out at 10 nM. In series [2], the CL free stood at 85 mL/min/kg.
On to `COc1nc(C2=NOCC(c3ccc(C(F)(F)F)c(F)c3)N2)ccc1-n1cnc(C)c1` (stereo not given), for which the EC50 in series [1] stood at 21 nM. Further, the CL free in series [2] was 62 mL/min/kg.
For `COc1nc(C2=NOCC(c3ccc(Cl)c(Cl)c3)N2)ccc1-n1cnc(C)c1` (stereo not given), the Activity in series [3] was 37%. Besides, the Ratio in series [4] was 0.5. Moreover, in series [5], the EC90 was found to be 97 nM. Besides, the EC50 in series [1] came to 10 nM.
In the case of `COc1nc(C2=NOCC(c3ccc(C#N)cc3)N2)ccc1-n1cnc(C)c1` (stereo not given), the EC50 in series [1] was determined as 450 nM.
For the compound `COc1nc(C2=NOCC(c3ccc(C)cc3)N2)ccc1-n1cnc(C)c1` (stereo not given), the EC50 in series [1] was 74 nM. This compound also came in with a CL free in series [2] of 135 mL/min/kg.
Regarding `COc1nc(C2=NOC(C)(C)C(c3ccccc3)N2)ccc1-n1cnc(C)c1` (stereo not given), in series [1], the EC50 stood at 75 nM. The compound further came in with a CL free in series [2] of 5 mL/min/kg.
For `COc1nc(C2=NOC[C@H](c3cc4ccccc4o3)N2)ccc1-n1cnc(C)c1`, the results for the Activity in series [3], in series [6] and in series [7] were 43%, 58% and 30%, respectively. Also, the Ratio in series [4] was determined as 1.1; in series [8] it was 0.7. In series [5], the EC90 is 383 nM. Also, the EC50 in series [1] is 35 nM. The compound further came in with a CL free in series [2] of 51 mL/min/kg.
In the case of `COc1cccc(C2CON=C(c3ccc(-n4cnc(C)c4)c(OC)n3)N2)c1` (stereo not given), the EC50 in series [1] was found to be 197 nM.
In the case of `COc1nc(C2=NOCC(c3ccc(F)cc3)N2)ccc1-n1cnc(C)c1` (stereo not given), in series [1], the concentration giving a half-maximal response (EC50) is 60 nM.
`COc1nc(C2=NOCC(c3ccc(C(C)(C)C)cc3)N2)ccc1-n1cnc(C)c1` (stereo not given): in series [1], the EC50 turned out to be 10 nM. For the same compound, the CL free in series [2] worked out at 320 mL/min/kg.
For `COc1nc(C2=NOC(C)C(c3ccc(Cl)c(F)c3)N2)ccc1-n1cnc(C)c1` (stereo not given), the results for the Activity in series [3], in series [6] and in series [7] were 43%, 73% and 44%, respectively. Also, the figures for the Ratio in series [4] and in series [8] were 2.6 and 2.4, respectively. Also, in series [5], the EC90 came out at 97 nM. The EC50 in series [1] is 8 nM. In series [2], the CL free turned out to be 1 mL/min/kg.
Take `COc1nc(C2=NOCC(c3cccc(C4CC4)c3)N2)ccc1-n1cnc(C)c1` (stereo not given): the EC50 in series [1] was 23 nM. Besides, in series [2], the CL free is 29 mL/min/kg.
Consider `COc1nc(C2=NOCC(c3ccccc3)N2)ccc1-n1cnc(C)c1` (stereo in doubt; 7), for which the EC50 in series [1] came out at 2000 nM.
Consider `COc1nc(C2=NOCC(c3ccc(F)c(C(F)(F)F)c3)N2)ccc1-n1cnc(C)c1` (stereo not given), for which, in series [3], the Activity came out at 41%. Also, in series [4], the Ratio was 0.7. In addition, in series [5], the EC90 came to 268 nM. In series [1], the concentration giving a half-maximal response (EC50) turned out to be 19 nM.
For the compound `COc1nc(C2=NOCC(c3ccc(F)c(Cl)c3)N2)ccc1-n1cnc(C)c1` (stereo not given), in series [3], the Activity was found to be 30%. In series [4], the Ratio worked out at 1.5. Further, the EC90 in series [5] amounted to 278 nM. The EC50 in series [1] is 23 nM. The compound further gave a CL free in series [2] of 13 mL/min/kg.
`COc1nc(C2=NOC(C)(C)C(c3ccc(Cl)cc3)N2)ccc1-n1cnc(C)c1` (stereo not given): the EC50 in series [1] worked out at 23 nM. Moreover, the CL free in series [2] was 15 mL/min/kg.
With `COc1nc(C2=NOCC(c3cccc(C(F)(F)F)c3)N2)ccc1-n1cnc(C)c1` (stereo not given), the EC50 in series [1] is 43 nM.
For the compound `COc1nc(C2=NOCC(c3ccc(Cl)c(C)c3)N2)ccc1-n1cnc(C)c1` (stereo not given), in series [3], the Activity was 30%. Also, in series [4], the Ratio is 1.3. Further, the EC90 in series [5] turned out to be 127 nM. In series [1], the EC50 was 10 nM. Besides, the CL free in series [2] is 70 mL/min/kg.
For the compound `COc1nc(C2=NOCC(c3ccc(C)c(Cl)c3)N2)ccc1-n1cnc(C)c1` (stereo not given), the EC50 in series [1] was 14 nM. For the same compound, the CL free in series [2] amounted to 422 mL/min/kg.
Consider `COc1nc(C2=NOC(C)C(c3ccc(Cl)c(Cl)c3)N2)ccc1-n1cnc(C)c1` (stereo not given), for which the EC50 in series [1] worked out at 5 nM. This compound also yielded a CL free in series [2] of 20 mL/min/kg.
For the compound `COc1nc(C2=NOCC(c3ccc(C(F)(F)F)c(Cl)c3)N2)ccc1-n1cnc(C)c1` (stereo not given), the EC50 in series [1] was found to be 10 nM.
For `COc1nc(C2=NOCC(c3ccc(Cl)c(C4CC4)c3)N2)ccc1-n1cnc(C)c1` (stereo not given), the EC50 in series [1] came out at 13 nM. Moreover, the CL free in series [2] was 274 mL/min/kg.

The record behind these values is ChEMBL document CHEMBL4837257, “Discovery of the Oxadiazine FRM-024: A Potent CNS-Penetrant Gamma Secretase Modulator” (J Med Chem, 2021).
